Test results as given in PMC6017562, “Aethiopinolones A–E, New Pregnenolone Type Steroids from the East African Basidiomycete Fomitiporia aethiopica” (Molecules : A Journal of Synthetic Chemistry and Natural …, 2018).
Values after ≈ are worked out from the molar mass of the structure shown.

Assays:
mouse fibroblast L929 = experiment: MTT cytotoxicity assay, L929; format: cell-based; conditions: L929 cells, 5 days incubation
Experimental: (§1) In vitro cytotoxicity (IC50) of the pure compounds 1–5 was determined against a panel of mammalian cell lines including mouse fibroblast L929, HeLa (KB-3-1), epidermoid carcinoma cells A431, breast cancer cells MCF-7, prostate cancer cells PC-3 and adenocarcinomic human alveolar basal epithelial cells A549. The cell lines were cultured in DMEM (Gibco, ThermoFisher Scientific, Hilden, Germany) and MCF-7 in RPMI (Lonza, Cologne, Germany) media, all supplemented with 10% of fetal bovine serum (Gibco) under 10% CO2 at 37 °C. The cytotoxicity assay was performed according to the MTT (3-(4,5-dimethylthiazol-2-yl)-2,5 diphenyltetrazolium bromide) method in 96-well microplates (ThermoFisher Scientific). Briefly 60 μL aliquots of serial dilutions from an initial stock of 1 mg/mL in MeOH of the test compounds were added to 120 μL aliquots of a cell suspension (5.0 × 10^4 cells/mL) in 96-well microplates. After 5 days incubation, a MTT assay was performed, and the absorbance measured at 590 nm using an ELISA plate reader (Victor, PerkinElmer, Überlingen, Germany). The concentration at which the growth of cells was inhibited to 50% of the control (IC50) was obtained from the dose response curves. The negative control was methanol.

HeLa (KB-3-1) = experiment: MTT cytotoxicity assay, KB3.1; format: cell-based, human; conditions: KB3.1 cells, 5 days incubation
Experimental: as §1

[1] = test system: epidermoid carcinoma cells A431; experiment: MTT cytotoxicity assay, A431; format: cell-based, human; conditions: 5 days incubation
Experimental: as §1

[2] = test system: adenocarcinomic human alveolar basal epithelial cells A549; experiment: MTT cytotoxicity assay, A549; format: cell-based; conditions: 5 days incubation
Experimental: as §1

[3] = test system: prostate cancer cells PC-3; experiment: MTT cytotoxicity assay, PC-3; format: cell-based, human; conditions: PC-3 cells, 5 days incubation
Experimental: as §1

SKOV-3 = experiment: MTT cytotoxicity assay, SKOV-3; format: cell-based, human; conditions: SKOV-3 cells, 5 days incubation
[4] = test system: breast cancer cells MCF-7; experiment: MTT cytotoxicity assay, MCF-7; format: cell-based, human; conditions: MCF-7 cells, 5 days incubation
Experimental: as §1

[5] = MTT cytotoxicity assay, L929; format: cell-based, mouse; conditions: mouse, L929 fibroblast cells, 5 days incubation
Experimental: as §1

[6] = MTT cytotoxicity assay, KB3.1; format: cell-based, human; conditions: human, HeLa (KB-3-1) cells, KB3.1 cells, 5 days incubation
Experimental: as §1

[7] = MTT cytotoxicity assay, A431; format: cell-based, human; conditions: human, A431 epidermoid carcinoma cells, 5 days incubation
Experimental: as §1

[8] = MTT cytotoxicity assay, A549; format: cell-based, human; conditions: human, A549 alveolar basal epithelial adenocarcinoma cells, 5 days incubation
Experimental: as §1

[9] = MTT cytotoxicity assay, PC-3; format: cell-based, human; conditions: human, PC-3 prostate cancer cells, PC-3 cells, 5 days incubation
Experimental: as §1

[10] = MTT cytotoxicity assay, SKOV-3; format: cell-based, human; conditions: human, SKOV-3 cells, 5 days incubation
[11] = MTT cytotoxicity assay, MCF-7; format: cell-based, human; conditions: human, MCF-7 breast cancer cells, MCF-7 cells, 5 days incubation
Experimental: as §1

[12] = test system: various mammalian cell lines; experiment: Cytotoxic effects against the panel of mammalian cell lines (overall statement); format: cell-based; conditions: all tested cell lines of Table 3
Experimental: as §1

Row | Compound | Cytotoxicity IC50 (mouse fibroblast L929) [µg/mL] | Cytotoxicity IC50 (HeLa (KB-3-1)) [µg/mL] | Cytotoxicity IC50 [1] [µg/mL] | Cytotoxicity IC50 [2] [µg/mL] | Cytotoxicity IC50 [3] [µg/mL] | Cytotoxicity IC50 (SKOV-3) [µg/mL] | Cytotoxicity IC50 [4] [µg/mL] | IC50 at 5 days [5] [µg/mL] | IC50 at 5 days [6] [µg/mL] | IC50 at 5 days [7] [µg/mL] | IC50 at 5 days [8] [µg/mL] | IC50 at 5 days [9] [µg/mL] | IC50 at 5 days [10] [µg/mL] | IC50 at 5 days [11] [µg/mL] | Cytotoxic activity against the tested cell lines (in words) [12]
1 | C/C(=C\c1csc(C)n1)[C@@H]1C[C@@H]2O[C@]2(C)CCC[C@H](C)[C@H](O)[C@@H](C)C(=O)C(C)(C)[C@@H](O)CC(=O)O1 [Epothilon B, reference compound] | 0.0014 | 0.00022 | 0.0006 | 0.005 | 0.0002 | 0.0014 | 0.0004 | – | – | – | – | – | – | – | –
2 | CC(=O)[C@H]1[C@H](O)C[C@H]2C3=CC(=O)[C@H]4C[C@H](O)CC[C@]4(C)[C@@]3(O)CC[C@@]21C [Compound 2, Aethiopinolone B] | – | – | – | – | – | – | – | 45 (≈ 124 µM) | 39 (≈ 108 µM) | > 70 | > 70 | > 70 | > 70 | > 70 | –
3 | CC(=O)C1=CC[C@H]2C3=CC(=O)[C@H]4C[C@H](O)CC[C@]4(C)[C@@]3(O)CC[C@]12C [Compound 4, Aethiopinolone D] | – | – | – | – | – | – | – | 45 (≈ 131 µM) | 39 (≈ 113 µM) | 21 (≈ 61 µM) | 52 (≈ 151 µM) | 40 (≈ 116 µM) | 36 (≈ 105 µM) | 17 (≈ 49.4 µM) | moderate activity
4 | CC(=O)C1=CC[C@H]2C3=CC(=O)[C@H]4C[C@@H](O)CC[C@]4(C)[C@@]3(O)CC[C@]12C [Compound 3, Aethiopinolone C] | – | – | – | – | – | – | – | 40 (≈ 116 µM) | 35 (≈ 102 µM) | 27 (≈ 78.4 µM) | 70 (≈ 203 µM) | 45 (≈ 131 µM) | 38 (≈ 110 µM) | 18 (≈ 52.3 µM) | moderate activity
5 | CC(=O)C1=CC[C@H]2C3=CC(=O)[C@H]4CC(=O)CC[C@]4(C)[C@@]3(O)CC[C@]12C [Compound 5, Aethiopinolone E] | – | – | – | – | – | – | – | 40 (≈ 117 µM) | 33 (≈ 96.4 µM) | 14 (≈ 40.9 µM) | 43 (≈ 126 µM) | 39 (≈ 114 µM) | 34 (≈ 99.3 µM) | 16 (≈ 46.7 µM) | –
6 | CC(=O)C1C(O)CC2C3=CC(=O)C4CC(O)CCC4(C)C3(O)CCC21C (centres unmarked) [Compound 1, Aethiopinolone A] | – | – | – | – | – | – | – | 28 (≈ 77.2 µM) | 19 (≈ 52.4 µM) | 22 (≈ 60.7 µM) | – | 8 (≈ 22.1 µM) | 26 (≈ 71.7 µM) | 20 (≈ 55.2 µM) | strongest activity
